We go through five compounds from patent publication US10159634B2, “Compositions and methods for inhibiting hair growth” (priority 2009, dated 2018).

In the test the test system is C3H mice. Briefly: Telogen Conversion Assay. It counts as in vivo. The conditions noted are these: for Average Grades: average of 7 mice, visual grade 0 (pink skin) to 4 (full anagen), topical; for hair regrowth (regrowth score, FIG. 1): applied daily, week 3 and week 4, at the appropriate dose-level, compared to the control group; for hair growth (average grade): grades of 7 mice after 23 days, example written in present tense. The procedure:
FP receptor antagonists are tested for their potential to […] using the Telogen Conversion Assay. The Telogen Conversion Assay measures the potential of a FP receptor antagonist to inhibit the conversion of mice in the resting stage of the hair growth cycle (“telogen”), to the growth stage of the hair growth cycle (“anagen”), and to assess the rate of anagen growth.
Without intending to be limited by theory, there are three principal phases of the hair growth cycle: anagen, catagen, and telogen. It is believed that there is a longer telogen period in C3H mice (Harlan Sprague Dawley, Inc., Indianapolis, Ind.) from approximately 40 days of age until about 75 days of age, when hair growth is synchronized. It is believed that after 75 days of age, hair growth is no longer synchronized. Wherein about 40 day-old mice with dark fur (brown or black) are used in hair growth experiments, melanogenesis occurs along with hair (fur) growth wherein the topical application of hair growth inducers is evaluated. The Telogen Conversion Assay herein is used to screen FP receptor antagonists for potential hair growth by measuring melanogenesis and/or inhibition of expected hair growth.
Three groups of 44 day-old C3H mice are used: a vehicle control group, a positive control group, and a test FP receptor antagonist group, wherein the test FP receptor antagonist group is administered a FP receptor antagonist F used in the method of this invention. The length of the assay is typically 24 days with 15 treatment days (wherein the treatment days occur Mondays through Fridays). Day 1 is the first day of treatment. Typical dosage concentrations are set forth in Table 1, however the skilled artisan will readily understand that such concentrations may be modified.
The mice are treated topically Monday through Friday on their lower back (base of tail to the lower rib). A pipette and tip are used to deliver 400 μl to each mouse's back. The 400 μL application is applied slowly while moving hair on the mouse to allow the application to reach the skin.
While each treatment is being applied to the mouse topically, a visual grade of from 0 to 4 will be given to the skin color in the application area of each animal. As a mouse converts from telogen to anagen, its skin color will become more bluish-black.

For the compound `O=C(O)CCC/C=C\CC1C(/C=C/[C@H](O)C2Cc3ccccc3C2)[C@@H](F)C[C@@H]1O` (stereo partly drawn) [Example 1], the “Average Grades” value runs as follows: (23 Days) 0.4; (25 Days) 0.1; (26 Days) 0.7.

On to `COC(=O)CCC/C=C\CC1C(/C=C/[C@H](O)C2Cc3ccccc3C2)[C@@H](F)C[C@@H]1O` (stereo partly drawn) [Example 2], for which the “hair regrowth (regrowth score, FIG. 1)” value is on record as “inhibited hair regrowth”. Also, where the note is “23 Days”, the “Average Grades” value stood at 0.1.

Take `O=C(N[C@H](c1ccccc1)c1ccccn1)[C@@H]1SCCN1S(=O)(=O)c1ccc(-c2ccccc2)cc1` [Example 3]: the “hair regrowth (regrowth score, FIG. 1)” value is “inhibited hair regrowth” and the “hair growth (average grade)” value is reported as “significantly reduces hair growth”.

For the compound `CC(C)OC(=O)CCC/C=C\CC1C(/C=C/[C@H](O)C2Cc3ccccc3C2)[C@@H](F)C[C@@H]1O` (stereo partly drawn) [Example 4], the “hair growth (average grade)” value is listed as “significantly reduces hair growth”. “Ile-Leu-Gly-His-(citrulline)-Asp-Tyr-Lys [Example 5]”: the “hair growth (average grade)” value was “significantly reduces hair growth”.
